System: chiens Beagle
Experiment: Anti-emetic test: apomorphine-induced vomiting in Beagle dogs
Type: in vivo
Settings: for Diminution par rapport au témoin (%): percentage decrease in number of vomitings vs control trial, compound about 1 mg/kg intramuscular at time 0, apomorphine about 100 µg/kg subcutaneous 30 minutes later
Experimental: L'étude a été effectuée sur des chiens Beagle provenant de l'élevage du Centre de RecherchesBiologiques de Baugy.
On a tout d'abord effectué un essai témoin, puis six jours après, on a testé notamment les quatre composés mentionnés ci-dessus.
Pendant l'essai témoin, les animaux reçoivent 100 µg/kg d'apomorphine, qui provoque des vomissements,
Lorsqu'on teste les produits conformes à l'invention et le racémique du composé n° 1 135, les animaux reçoivent : • - à l'instant 0, une injection intra-musculaire du composé étudié à raison d'environ 1 mg/kg • - 30 minutes plus tard, une injection sous- cutanée d'apomorphine est effectuée, d'environ 100 µg/kg.
Les résultats donnés ci-après correspondent aux pourcentages de diminution du nombre de vomissements par rapport à l'essai témoin.

Compound	Diminution par rapport au témoin (%)	nombre de vomissements / activité (result in words, same test (about 1 mg/kg i.m., apomorphine about 100 µg/kg s.c. 30 min later))
CCN1CCCCCC1CNS(=O)(=O)c1cc(Cl)c(N)cc1OC (racemic) [Composé n° 1 149, amino-4 chloro-5 méthoxy-2 N-(N-éthyl méthyl-2 azépinyl) benzènesulfonamide]	60	–
CCN1CCCC1CNS(=O)(=O)c1cc(Cl)c(N)cc1OC (racemic) [racémique du lévo-gyre n° 1 135, reference compound]	10	–
CCN1CCC[C@H]1CNS(=O)(=O)c1cc(Cl)c(OC)cc1OC [Composé n° 1 138]	20	–
CCN1CCC[C@H]1CNS(=O)(=O)c1cc(Cl)c(N)cc1OC [Composé n° 1 135]	50	beaucoup plus actif que le racémique correspondant

Source: patent publication EP0088849A1, “Levorotatory compounds of N-substituted benzenesulphone amides, process for their preparation and pharmaceutical compositions containing them” (CHOAY S.A., priority 1982, dated 1983)
